# Patent US20190134039A1, “ANTIVIRAL JAK INHIBITORS USEFUL IN TREATING OR PREVENTING RETROVIRAL AND OTHER VIRAL INFECTIONS” (EMORY UNIVERSITY, priority 2011, published 2019)
# Tested on: HIV-1 containing 4xAZT (D67N/K70R/T215Y/K219Q)
# Assay: microbe, parasite or virus in culture
# Assay type: cell-based
# Conditions: 4xAZT (D67N/K70R/T215Y/K219Q)
SMILES,FI50 (ratio of EC50 against mutant virus:EC50 against wild-type xxLAI),FI90 (ratio of EC90 against mutant virus:EC90 against wild-type xxLAI)
"Nc1nc(=O)n([C@@H]2CS[C@H](CO)O2)cc1F (relative stereo) [(−)FTC, cis-2-hydroxymethyl-5-(5-fluorocytosin-1-yl)-1,3-oxathiolane]",2,1.4
"Nc1ccn([C@@H]2CS[C@H](CO)O2)c(=O)n1 [Compound 3TC, (−)-cis-2-hydroxymethyl-5-(cytosin-1-yl)-1,3-oxathiolane]",0.9,1.1
"Cc1cn([C@H]2C=C[C@@H](CO)O2)c(=O)[nH]c1=O [Compound D4T, 2′,3′-dideoxy-2′,3′-didehydrothymidine]",,8.3

# Same assay, conditions: Human immunodeficiency virus 1, Lymphocyte
SMILES,EC50 [nM],EC90 [nM]
"Nc1nc(=O)n([C@@H]2CS[C@H](CO)O2)cc1F (relative stereo) [(−)FTC, cis-2-hydroxymethyl-5-(5-fluorocytosin-1-yl)-1,3-oxathiolane]",200 ± 100,1200 ± 100
"Nc1ccn([C@@H]2CS[C@H](CO)O2)c(=O)n1 [Compound 3TC, (−)-cis-2-hydroxymethyl-5-(cytosin-1-yl)-1,3-oxathiolane]",700 ± 800,3400 ± 1100
"Cc1cn([C@H]2C=C[C@@H](CO)O2)c(=O)[nH]c1=O [Compound D4T, 2′,3′-dideoxy-2′,3′-didehydrothymidine]",27800 ± 37100,53200 ± 66300

# Tested on: HIV-1 containing A62V/V75I/F77L/F116Y/Q151M
# Assay: microbe, parasite or virus in culture
# Assay type: cell-based
# Conditions: A62V/V75I/F77L/F116Y/Q151M
SMILES,FI50 (ratio of EC50 against mutant virus:EC50 against wild-type xxLAI),FI90 (ratio of EC90 against mutant virus:EC90 against wild-type xxLAI)
"Nc1nc(=O)n([C@@H]2CS[C@H](CO)O2)cc1F (relative stereo) [(−)FTC, cis-2-hydroxymethyl-5-(5-fluorocytosin-1-yl)-1,3-oxathiolane]",4.2,2.5
"Nc1ccn([C@@H]2CS[C@H](CO)O2)c(=O)n1 [Compound 3TC, (−)-cis-2-hydroxymethyl-5-(cytosin-1-yl)-1,3-oxathiolane]",0.6,0.9
"Cc1cn([C@H]2C=C[C@@H](CO)O2)c(=O)[nH]c1=O [Compound D4T, 2′,3′-dideoxy-2′,3′-didehydrothymidine]",6.9,11

# Same assay, conditions: Human immunodeficiency virus 1, Lymphocyte
SMILES,EC50 [nM],EC90 [nM]
"Nc1nc(=O)n([C@@H]2CS[C@H](CO)O2)cc1F (relative stereo) [(−)FTC, cis-2-hydroxymethyl-5-(5-fluorocytosin-1-yl)-1,3-oxathiolane]",400 ± 300,2100 ± 1600
"Nc1ccn([C@@H]2CS[C@H](CO)O2)c(=O)n1 [Compound 3TC, (−)-cis-2-hydroxymethyl-5-(cytosin-1-yl)-1,3-oxathiolane]",500 ± 700,2700 ± 1700
"Cc1cn([C@H]2C=C[C@@H](CO)O2)c(=O)[nH]c1=O [Compound D4T, 2′,3′-dideoxy-2′,3′-didehydrothymidine]",6800 ± 5700,70300 ± 51400

# Tested on: wild-type HIV-1xxLAI
# Assay: Antiviral potency in primary human lymphocytes, wild type
# Assay type: cell-based
# Conditions: Human immunodeficiency virus 1, Lymphocyte
SMILES,EC50 [nM],EC90 [nM]
"Cc1cn([C@H]2C=C[C@@H](CO)O2)c(=O)[nH]c1=O [Compound D4T, 2′,3′-dideoxy-2′,3′-didehydrothymidine]",1000 ± 500,6400 ± 400

# Same assay, conditions: Human immunodeficiency virus 1, Lymphocyte; xxLAI; primary human lymphocytes; read-out: EC50
row,SMILES,EC50 [nM]
1,"Nc1nc(=O)n([C@@H]2CS[C@H](CO)O2)cc1F (relative stereo) [(−)FTC, cis-2-hydroxymethyl-5-(5-fluorocytosin-1-yl)-1,3-oxathiolane]",90 ± 20
2,"Nc1ccn([C@@H]2CS[C@H](CO)O2)c(=O)n1 [Compound 3TC, (−)-cis-2-hydroxymethyl-5-(cytosin-1-yl)-1,3-oxathiolane]",800 ± 400

# Same assay, conditions: Human immunodeficiency virus 1, Lymphocyte; xxLAI; primary human lymphocytes; read-out: EC90
row,SMILES,EC90 [nM]
1,"Nc1nc(=O)n([C@@H]2CS[C@H](CO)O2)cc1F (relative stereo) [(−)FTC, cis-2-hydroxymethyl-5-(5-fluorocytosin-1-yl)-1,3-oxathiolane]",800 ± 400
2,"Nc1ccn([C@@H]2CS[C@H](CO)O2)c(=O)n1 [Compound 3TC, (−)-cis-2-hydroxymethyl-5-(cytosin-1-yl)-1,3-oxathiolane]",3100 ± 1200

# Tested on: HIV-1 containing K65R
# Assay: microbe, parasite or virus in culture
# Assay type: cell-based
# Conditions: Human immunodeficiency virus 1, Lymphocyte
SMILES,EC50 [nM],EC90 [nM]
"Nc1nc(=O)n([C@@H]2CS[C@H](CO)O2)cc1F (relative stereo) [(−)FTC, cis-2-hydroxymethyl-5-(5-fluorocytosin-1-yl)-1,3-oxathiolane]",500 ± 400,2400 ± 1400
"Nc1ccn([C@@H]2CS[C@H](CO)O2)c(=O)n1 [Compound 3TC, (−)-cis-2-hydroxymethyl-5-(cytosin-1-yl)-1,3-oxathiolane]",2500 ± 3000,6000 ± 5300
"Cc1cn([C@H]2C=C[C@@H](CO)O2)c(=O)[nH]c1=O [Compound D4T, 2′,3′-dideoxy-2′,3′-didehydrothymidine]",1500 ± 600,7900 ± 300

# Same assay, conditions: K65R
SMILES,FI50 (ratio of EC50 against mutant virus:EC50 against wild-type xxLAI),FI90 (ratio of EC90 against mutant virus:EC90 against wild-type xxLAI)
"Nc1nc(=O)n([C@@H]2CS[C@H](CO)O2)cc1F (relative stereo) [(−)FTC, cis-2-hydroxymethyl-5-(5-fluorocytosin-1-yl)-1,3-oxathiolane]",5.5,2.9
"Nc1ccn([C@@H]2CS[C@H](CO)O2)c(=O)n1 [Compound 3TC, (−)-cis-2-hydroxymethyl-5-(cytosin-1-yl)-1,3-oxathiolane]",3.3,1.9
"Cc1cn([C@H]2C=C[C@@H](CO)O2)c(=O)[nH]c1=O [Compound D4T, 2′,3′-dideoxy-2′,3′-didehydrothymidine]",1.5,1.2

# Tested on: HIV-1 containing M184V
# Assay: microbe, parasite or virus in culture
# Assay type: cell-based
# Conditions: Human immunodeficiency virus 1, Lymphocyte
SMILES,EC50 [nM],EC90 [nM]
"Nc1nc(=O)n([C@@H]2CS[C@H](CO)O2)cc1F (relative stereo) [(−)FTC, cis-2-hydroxymethyl-5-(5-fluorocytosin-1-yl)-1,3-oxathiolane]",10100 ± 7300,41300 ± 29300
"Nc1ccn([C@@H]2CS[C@H](CO)O2)c(=O)n1 [Compound 3TC, (−)-cis-2-hydroxymethyl-5-(cytosin-1-yl)-1,3-oxathiolane]",> 10000,> 10000
"Cc1cn([C@H]2C=C[C@@H](CO)O2)c(=O)[nH]c1=O [Compound D4T, 2′,3′-dideoxy-2′,3′-didehydrothymidine]",600 ± 800,2600 ± 2500

# Same assay, conditions: M184V
SMILES,FI50 (ratio of EC50 against mutant virus:EC50 against wild-type xxLAI),FI90 (ratio of EC90 against mutant virus:EC90 against wild-type xxLAI)
"Nc1nc(=O)n([C@@H]2CS[C@H](CO)O2)cc1F (relative stereo) [(−)FTC, cis-2-hydroxymethyl-5-(5-fluorocytosin-1-yl)-1,3-oxathiolane]",117,50
"Nc1ccn([C@@H]2CS[C@H](CO)O2)c(=O)n1 [Compound 3TC, (−)-cis-2-hydroxymethyl-5-(cytosin-1-yl)-1,3-oxathiolane]",13.3,3.2
"Cc1cn([C@H]2C=C[C@@H](CO)O2)c(=O)[nH]c1=O [Compound D4T, 2′,3′-dideoxy-2′,3′-didehydrothymidine]",0.6,0.4

# Tested on: HIV-1 containing L74V
# Assay: microbe, parasite or virus in culture
# Assay type: cell-based
# Conditions: Human immunodeficiency virus 1, Lymphocyte
SMILES,EC50 [nM],EC90 [nM]
"Nc1nc(=O)n([C@@H]2CS[C@H](CO)O2)cc1F (relative stereo) [(−)FTC, cis-2-hydroxymethyl-5-(5-fluorocytosin-1-yl)-1,3-oxathiolane]",200 ± 200,1300 ± 1000
"Nc1ccn([C@@H]2CS[C@H](CO)O2)c(=O)n1 [Compound 3TC, (−)-cis-2-hydroxymethyl-5-(cytosin-1-yl)-1,3-oxathiolane]",600 ± 800,2900 ± 2900
"Cc1cn([C@H]2C=C[C@@H](CO)O2)c(=O)[nH]c1=O [Compound D4T, 2′,3′-dideoxy-2′,3′-didehydrothymidine]",900 ± 800,9800 ± 2400

# Same assay, conditions: L74V
SMILES,FI50 (ratio of EC50 against mutant virus:EC50 against wild-type xxLAI),FI90 (ratio of EC90 against mutant virus:EC90 against wild-type xxLAI)
"Nc1nc(=O)n([C@@H]2CS[C@H](CO)O2)cc1F (relative stereo) [(−)FTC, cis-2-hydroxymethyl-5-(5-fluorocytosin-1-yl)-1,3-oxathiolane]",2,1.6
"Nc1ccn([C@@H]2CS[C@H](CO)O2)c(=O)n1 [Compound 3TC, (−)-cis-2-hydroxymethyl-5-(cytosin-1-yl)-1,3-oxathiolane]",0.7,0.9
"Cc1cn([C@H]2C=C[C@@H](CO)O2)c(=O)[nH]c1=O [Compound D4T, 2′,3′-dideoxy-2′,3′-didehydrothymidine]",0.9,1.5
